In one assay the test system is Plasma. Nature of the assay: Inhibition of 10.0 ug/mL collagen-induced platelet aggregation in human platelet rich plasma. In kind it is functional.
A further assay concerns the target Phosphodiesterase 3 (Homo sapiens, UniProt Q14432+Q13370). Description: Inhibition of human platelet PDE3.

The term IC50 denotes the concentration at which inhibition is half-maximal. Higher therefore signals weaker potency.

Take `O=c1cc(N2CCNCC2)c2ccccc2o1`: the midpoint of inhibition in the assay on Plasma, the IC50, lay at 36 µM.

For the molecule `Cc1c(OCCN2CCOCC2)ccc2c(N3CCNCC3)cc(=O)oc12`, the IC50 on Phosphodiesterase 3 stood at 0.078 µM.

Turning to `Cc1c(OCc2cccnc2)ccc2c(N3CCNCC3)cc(=O)oc12`, the IC50 at Phosphodiesterase 3 was determined as 0.037 µM.

On Phosphodiesterase 3, `O=C1CCc2cc(OCCCCc3nnnn3C3CCCCC3)ccc2N1` [CILOSTAZOL] showed an IC50 of 0.28 µM.

Turning to `O=c1cc(N2CCNCC2)oc2ccccc12`, the half-inhibitory concentration (IC50) in the assay on Plasma was determined as 60 µM.

Source of the values: ChEMBL document CHEMBL1143688 (J Med Chem, 2007).
